Target: High affinity 3',5'-cyclic-AMP phosphodiesterase 7A (Homo sapiens, UniProt Q13946)
Test: Inhibition Assay: The PDE 7 (phosphodiesterase VII) inhibiting effect of the compounds of the present invention was performed by the following method, which was modified assay method described in Biochemical. Pharmacol. 48(6), 1219-1223 (1994). (1) The active fraction of PDE 7 (phosphodiesterase VII) was obtained. That is, MOLT-4 (obtainable from ATCC as ATCC No. CRL-1582), which was cell line of human acute lymphoblastic […] T cells, was incubated in RPMI1640 culture medium containing 10% fetal bovine serum to obtain 5x10^8 MOLT-4 cells. The cells were collected by centrifugation and suspended with 10 mL of buffer solution A [25 mM of tris-HCl, 5 mM of 2-mercaptoethnol, 2 mM of benzamidine, 2 mM of EDTA, 0.1 mM of 4-(2-aminoethyl)benzensulfonyl hydrochloride; pH 7.5], then homogenized by Polytron homogenizer. The homogenate were centrifuged under 25,000xG for 10 minutes at 4 C. The supernatant was separated and thus obtained supernatant was further centrifuged under 100,000xG for 60 minutes.

Sequence of High affinity 3',5'-cyclic-AMP phosphodiesterase 7A (Q13946 whole entry): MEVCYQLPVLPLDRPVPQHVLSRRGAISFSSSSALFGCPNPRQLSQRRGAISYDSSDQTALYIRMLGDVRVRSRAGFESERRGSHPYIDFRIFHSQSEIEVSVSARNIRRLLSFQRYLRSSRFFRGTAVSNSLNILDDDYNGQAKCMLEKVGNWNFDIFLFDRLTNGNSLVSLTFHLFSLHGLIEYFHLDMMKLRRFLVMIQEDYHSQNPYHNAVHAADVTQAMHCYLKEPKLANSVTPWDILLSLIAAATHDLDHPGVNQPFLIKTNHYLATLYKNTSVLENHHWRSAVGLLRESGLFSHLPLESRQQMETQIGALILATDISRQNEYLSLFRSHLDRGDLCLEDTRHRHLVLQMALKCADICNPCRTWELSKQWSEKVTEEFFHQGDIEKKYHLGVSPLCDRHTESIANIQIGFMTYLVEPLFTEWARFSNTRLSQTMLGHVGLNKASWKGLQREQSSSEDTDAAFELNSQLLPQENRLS

Row | Structure (SMILES) | IC50 [nM]
1 | COc1cc(NC(=O)c2cc3c(C)nn(C4CCCCC4)c3s2)ccc1C(=O)N1CCC(O)CC1 | 65
2 | Cc1nn(C2CCCCC2)c2sc(C(=O)NC3CC[C@@H](C(=O)N(C)C)C3)cc12 (stereo partly specified) | 13
3 | Cc1nn(C2CCOCC2)c2sc(C(=O)N[C@H]3CC[C@H](N4CCOCC4)CC3)cc12 | 24
4 | Cc1nn(C2CCCCC2)c2sc(C(=O)Nc3ccc(N4CCN(C)CC4)c(Cl)c3)cc12 | 55
5 | COc1cc(NC(=O)c2cc3c(C)nn(C4CCCCC4)c3s2)ccc1C(=O)N1CCN(C)CC1 | 85
6 | Cc1nn(C2CCCCC2)c2sc(C(=O)Nc3ccc(N4CCOCC4)cc3)cc12 | 34
